Measurements taken from paper PMC8245773, “Brevibacillin 2V, a Novel Antimicrobial Lipopeptide With an Exceptionally Low Hemolytic Activity” (Frontiers in Microbiology, 2021).
Blank lines part the entries; values can stand above or below the molecule they belong to. *1 amine or outer side, *2 acyl side, *3 side chain or, on linkers, in order; H or OH if unused. Where a SMILES comes first, the peptide text is derived from it. [ ]: non-standard residue; d: D form. The star is where a group is joined. X2 = CC=C(N[*:1])C(=O)[*:2]; dOrn = NCCC[C@@H](N)C(=O)O; Valol = CC(C)[C@@H](CO)N*; X1 = CCC(C)C(O)C(=O)*

Assays:
human erythrocytes = test: Hemolytic activity; conditions: for HC50 (concentration that causes 50% hemolysis of human red blood cells): 1 h
Protocol: This assay was performed as per the method described in previous studies ([Ling et al., 2015]; [Li et al., 2018]). Briefly, erythrocytes were isolated from a healthy human volunteer donor (ordered from Sanquin, Netherlands^1) and washed with phosphate-buffered saline (PBS) three times. After that, peptides were added at final concentrations of 128, 64, 32, 16, 8, 4, 2, 1, and 0 mg/L in PBS containing 2% (v/v) erythrocytes. The cells were incubated at 37°C for 1 h and centrifuged for 5 min at 8,000 g. The supernatant was transferred to a 96-well plate, and the absorbance was measured at a wavelength of 450 nm with a Thermo Scientific Varioskan^TM LUX multimode microplate reader. The absorbance relative to the positive control, which was treated with 10% Triton X-100, was defined as the percentage of hemolysis. The 50% human blood cell hemolysis concentration (HC50) of peptides was calculated as described in previous studies ([Reed and Muench, 1938]).
(§1) GraphPad Prism 7.0 was used to fit the data of hemolytic assay and cytotoxicity assay in Figure 3. The experiments were conducted in triplicate, and data are presented as the mean value of triplicate experiments. Data Explorer Software was used to analyze the MALDI-TOF data; Thermo Scientific Xcalibur software was used to analyze the LC–MS/MS data. The statistical significance of the data was assessed using Duncan’s multiple-range test with the software SPSS Statistics 19.0. P-values less than 0.05 were considered to be statistically significant.

HepG2 cells = conditions: for HepG2 CC50: 24 h
Protocol: The cytotoxicity of brevibacillins was evaluated on HepG2 cells by using the XTT (Cell Proliferation Kit XTT, AppliChem) assay ([Roehm et al., 1991]). HepG2 cells [in Dulbecco’s modified Eagle’s medium (DMEM) supplemented with 10% fetal bovine serum] were seeded into 96-well plates and incubated at 37°C with 5% CO2. After 24 h, the medium was replaced with a fresh medium (DMEM with 2% FBS, 100 μl per well) containing different concentrations of brevibacillins ([Zhao et al., 2017]). After 24 h of incubation, the XTT reagent was added to the cultures according to the manufacturer’s instructions, and the plates were incubated at 37°C for 2 h with 5% CO2. Subsequently, the absorbance values were measured by using a Varioskan^TM LUX multimode microplate reader (Thermo Fisher Scientific) at 485 nm (reference, 690 nm). The 50% cell toxicity (CC50) of peptides was calculated as described in a previous study ([Reed and Muench, 1938]).
as §1

E. coli ATCC 25922 = test: Synergy assay, checkerboard method; conditions: for FICI: synergistic ≤0.5;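 on all read-outs here: growth read as OD600 in microplates, with antibiotics tested across twofold serial dilutions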
Protocol: (§2) Briefly, antibiotics were diluted in twofold series, while brevibacillins were added at a certain final concentration of 1, 2, or 4 mg/L. Indicator strains were added at a final concentration of 5 × 10^5 cfu/ml. After incubation at 37°C for 20 h, the OD600 of plates was determined. The fractional inhibitory concentration index (FICI) was calculated using the following formula: FICI = (MIC compound A in combination with B / MIC compound A) + (MIC compound B in combination with A / MIC compound B).

K. pneumoniae LMG20218 = test: Synergy assay, checkerboard method; conditions: for FICI: synergistic ≤0.5
Protocol: as §2

A. baumannii ATCC17978 = test: Synergy assay, checkerboard method; conditions: A. baumannii ATCC17978; for FICI: synergistic ≤0.5
Protocol: as §2

P. aeruginosa LMG6395 = test: Synergy assay, checkerboard method; conditions: for FICI: synergistic ≤0.5;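 on all read-outs here: antibiotics tested in twofold serial dilutions, with inhibition judged from plate OD600 readings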
Protocol: as §2

[1] = checkerboard, 5 × 10^5 cfu/ml, 37°C, 20 h, E.coli ATCC 25922, antibiotic alone
[2] = checkerboard, 5 × 10^5 cfu/ml, 37°C, 20 h, antibiotic alone

SMILES: CC=C(NC(=O)C(O)C(C)CC)C(=O)N[C@@H](CC(C)C)C(=O)N[C@H](CCCN)C(=O)N[C@H](C(=O)N[C@H](C(=O)N[C@H](C(=O)N[C@H](CCCCN)C(=O)N[C@H](C(=O)N[C@H](C(=O)N[C@@H](CCCCN)C(=O)N[C@H](Cc1ccc(O)cc1)C(=O)N[C@@H](CC(C)C)C(=O)N[C@H](CO)C(C)C)C(C)C)C(C)C)C(C)C)C(C)C)[C@@H](C)CC (stereo partly drawn) [brevibacillin V] (X1-[X2]L[dOrn]IVV[dK]VVK[dY]L-Valol)
- hemolytic activity at 128 mg/L (human erythrocytes): completely lysed
- HC50 (concentration that causes 50% hemolysis of human red blood cells) (human erythrocytes): 73.1 ± 1.4 mg/L
- CC50 (HepG2) relative to MIC values against bacterial pathogens (HepG2 cells): 2.5- to fivefold
- cytotoxicity to HepG2 cells at 16 mg/L (HepG2 cells): all of the HepG2 cells were killed
- HepG2 CC50 (HepG2 cells): 9.89 ± 0.67 µg/mL

- MIC of antibiotic at brevibacillin 0 mg/L (E. coli ATCC 25922; [1]): 2 µg/mL
- MIC of antibiotic at brevibacillin 2V 0 mg/L (E. coli ATCC 25922; [1]): 2 µg/mL
- MIC of antibiotic at brevibacillin I 0 mg/L (E. coli ATCC 25922; [1]): 2 µg/mL
- MIC of antibiotic at brevibacillin V 0 mg/L (E. coli ATCC 25922; [1]): 2 µg/mL
- MIC of antibiotic at brevibacillin 0 mg/L (K. pneumoniae LMG20218; [2]): 32 µg/mL
- MIC of antibiotic at brevibacillin 2V 0 mg/L (K. pneumoniae LMG20218; [2]): 32 µg/mL
- MIC of antibiotic at brevibacillin I 0 mg/L (K. pneumoniae LMG20218; [2]): 32 µg/mL
- MIC of antibiotic at brevibacillin V 0 mg/L (K. pneumoniae LMG20218; [2]): 32 µg/mL
- MIC of antibiotic at brevibacillin 0 mg/L (A. baumannii ATCC17978; [2]): 32 µg/mL
- MIC of antibiotic at brevibacillin 2V 0 mg/L (A. baumannii ATCC17978; [2]): 32 µg/mL
- MIC of antibiotic at brevibacillin I 0 mg/L (A. baumannii ATCC17978; [2]): 32 µg/mL
- MIC of antibiotic at brevibacillin V 0 mg/L (A. baumannii ATCC17978; [2]): 32 µg/mL
- MIC of antibiotic at brevibacillin 0 mg/L (P. aeruginosa LMG6395; [2]): 256 µg/mL
- MIC of antibiotic at brevibacillin 2V 0 mg/L (P. aeruginosa LMG6395; [2]): 256 µg/mL
- MIC of antibiotic at brevibacillin I 0 mg/L (P. aeruginosa LMG6395; [2]): 256 µg/mL
- MIC of antibiotic at brevibacillin V 0 mg/L (P. aeruginosa LMG6395; [2]): 256 µg/mL
SMILES: CCn1cc(C(=O)O)c(=O)c2ccc(C)nc21 [Nalidixic acid]
- FICI (E. coli ATCC 25922; antibiotic + brevibacillin 2V, E. coli ATCC 25922): 0.313
- FICI (E. coli ATCC 25922; antibiotic + brevibacillin I, E.coli ATCC 25922): 0.313
- FICI (E. coli ATCC 25922; antibiotic + brevibacillin V, E.coli ATCC 25922): 0.375
- FICI (E. coli ATCC 25922; antibiotic + brevibacillin, E.coli ATCC 25922): 0.375
- FICI (K. pneumoniae LMG20218; antibiotic + brevibacillin 2V): 0.531
- FICI (K. pneumoniae LMG20218; antibiotic + brevibacillin I): 0.516
- FICI (K. pneumoniae LMG20218; antibiotic + brevibacillin V): 1.016
- FICI (K. pneumoniae LMG20218; antibiotic + brevibacillin): 0.563
- FICI (A. baumannii ATCC17978; antibiotic + brevibacillin 2V): 0.531
- FICI (A. baumannii ATCC17978; antibiotic + brevibacillin I): 0.516
- FICI (A. baumannii ATCC17978; antibiotic + brevibacillin V): 1.016
- FICI (A. baumannii ATCC17978; antibiotic + brevibacillin): 0.625
- FICI (P. aeruginosa LMG6395; antibiotic + brevibacillin 2V): 0.266
- FICI (P. aeruginosa LMG6395; antibiotic + brevibacillin I): 0.266
- FICI (P. aeruginosa LMG6395; antibiotic + brevibacillin V): 0.516
- FICI (P. aeruginosa LMG6395; antibiotic + brevibacillin): 0.516

SMILES: CC=C(NC(=O)C(O)C(C)CC)C(=O)N[C@@H](CC(C)C)C(=O)N[C@H](CCCN)C(=O)N[C@H](C(=O)N[C@H](C(=O)N[C@H](C(=O)N[C@H](CCCCN)C(=O)N[C@H](C(=O)N[C@H](C(=O)N[C@@H](CCCCN)C(=O)N[C@H](Cc1ccc(O)cc1)C(=O)N[C@@H](CC(C)C)C(=O)N[C@H](CO)C(C)C)C(C)C)C(C)C)C(C)C)[C@@H](C)CC)[C@@H](C)CC (stereo partly drawn) [brevibacillin] (X1-[X2]L[dOrn]IIV[dK]VVK[dY]L-Valol)
- hemolytic activity at 64 mg/L (human erythrocytes): completely lysed
- HC50 (concentration that causes 50% hemolysis of human red blood cells) (human erythrocytes): 25.1 ± 0.1 mg/L
- CC50 (HepG2) relative to MIC values against bacterial pathogens (HepG2 cells): 2.5- to fivefold
- cytotoxicity to HepG2 cells at 16 mg/L (HepG2 cells): all of the HepG2 cells were killed
- HepG2 CC50 (HepG2 cells): 5.21 ± 0.01 µg/mL
